Results: ChEMBL document CHEMBL1134007, “Synthesis and structure-activity relationships of 1-phenylpyrazoles as xanthine oxidase inhibitors” (Bioorg Med Chem Lett, 2001)

Assays:
[1] = target: T1, Xanthine dehydrogenase/oxidase (Bos taurus, UniProt P80457); assay: In vitro percent inhibition against Xanthine oxidase at concentration of 10000 nmol/L
[2] = Tmax determined after 3 mg/kg oral administration in potassium oxonate treated rats; assay type: ADME, organism-based; design: dose 3 mg/kg, route oral; conditions: rat, in vivo
Rattus norvegicus [3] = assay: Tested for hypouricemic effect in potassium oxonate (uricase inhibitor) treated (po) rats for 0-24 hr expressed as ED20; assay type: functional
[4] = Tmax determined after 0.3 mg/kg oral administration in potassium oxonate treated rats; assay type: ADME, organism-based; design: dose 0.3 mg/kg, route oral; conditions: rat, in vivo
[5] = In vivo CL/F determined; assay type: ADME, organism-based; conditions: rat
Rattus norvegicus [6] = assay: Tested for hypouricemic effect in potassium oxonate (uricase inhibitor) treated (po) rats for 0-6 hr expressed as ED20; assay type: functional
[7] = target: T1, Xanthine dehydrogenase/oxidase; assay: In vitro inhibitory concentration against Xanthine oxidase
Rattus norvegicus [8] = assay: Tested for hypouricemic effect in potassium oxonate (uricase inhibitor) treated (po)rats for 0-6 hr expressed as ED20; assay type: functional

T1 sequence (P80457 whole entry): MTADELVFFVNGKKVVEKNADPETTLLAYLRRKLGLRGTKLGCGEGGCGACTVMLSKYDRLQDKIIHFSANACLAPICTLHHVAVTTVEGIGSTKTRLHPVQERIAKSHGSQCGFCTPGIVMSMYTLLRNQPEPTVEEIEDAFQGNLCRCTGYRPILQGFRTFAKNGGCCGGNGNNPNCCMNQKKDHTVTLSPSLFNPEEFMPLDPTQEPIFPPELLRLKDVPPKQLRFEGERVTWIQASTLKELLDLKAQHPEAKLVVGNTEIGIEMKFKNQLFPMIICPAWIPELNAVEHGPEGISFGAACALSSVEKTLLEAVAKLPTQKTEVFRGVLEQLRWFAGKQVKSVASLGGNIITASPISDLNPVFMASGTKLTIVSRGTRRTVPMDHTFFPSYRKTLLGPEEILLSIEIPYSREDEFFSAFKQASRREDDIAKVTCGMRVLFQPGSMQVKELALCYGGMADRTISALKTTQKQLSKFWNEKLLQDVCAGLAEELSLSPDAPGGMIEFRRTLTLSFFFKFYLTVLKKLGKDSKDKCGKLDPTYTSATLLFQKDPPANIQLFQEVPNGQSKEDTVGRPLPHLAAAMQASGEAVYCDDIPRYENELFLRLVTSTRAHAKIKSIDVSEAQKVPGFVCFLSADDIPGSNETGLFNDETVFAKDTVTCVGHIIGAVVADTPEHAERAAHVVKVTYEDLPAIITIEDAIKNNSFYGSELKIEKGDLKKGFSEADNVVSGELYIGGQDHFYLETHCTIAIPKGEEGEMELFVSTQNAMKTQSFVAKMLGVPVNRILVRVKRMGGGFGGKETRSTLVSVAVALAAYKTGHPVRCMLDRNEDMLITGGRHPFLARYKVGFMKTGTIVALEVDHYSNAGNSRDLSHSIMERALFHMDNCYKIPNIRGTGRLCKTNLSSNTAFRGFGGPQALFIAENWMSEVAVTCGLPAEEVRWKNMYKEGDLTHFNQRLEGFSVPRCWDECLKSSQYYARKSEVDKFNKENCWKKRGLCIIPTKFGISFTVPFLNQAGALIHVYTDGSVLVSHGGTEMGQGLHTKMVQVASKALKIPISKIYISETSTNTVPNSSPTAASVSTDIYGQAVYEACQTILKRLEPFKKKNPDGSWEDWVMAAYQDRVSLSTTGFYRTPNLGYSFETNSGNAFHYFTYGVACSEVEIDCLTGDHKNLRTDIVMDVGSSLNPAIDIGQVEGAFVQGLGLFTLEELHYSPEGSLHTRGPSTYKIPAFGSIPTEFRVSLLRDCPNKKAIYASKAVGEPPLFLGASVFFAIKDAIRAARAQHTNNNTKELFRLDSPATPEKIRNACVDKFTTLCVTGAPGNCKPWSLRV

Structure (SMILES)	inhibition at 10 µM [1] [%]	ED20 (Rattus norvegicus [3]) [mg/kg]	IC50 [7] [nM]	also measured
O=C(O)c1cnn(-c2ccc(Cl)cc2)c1	< 50			
CC(C)COc1ccc(-n2cc(C(=O)O)cn2)cc1C#N		> 10		Tmax [2]: 1.3 h; Tmax [4]: 1.1 h; CL/F [5]: 9.83 mL/min/kg; ED20 (Rattus norvegicus [6]): 2.5 mg/kg
COc1ccc(-n2cc(C(=O)O)cn2)cc1C#N			460	
N#Cc1cc(-n2cc(C(=O)O)cn2)ccc1OCC(=O)O			1500	
CC(C)(C)COc1ccc(-n2cc(C(=O)O)cn2)cc1C#N		1.4		Tmax [2]: 3.5 h; Tmax [4]: 3.5 h; CL/F [5]: 2 mL/min/kg; ED20 (Rattus norvegicus [6]): 0.55 mg/kg
Oc1ncnc2[nH]ncc12 [ALLOPURINOL]		> 10		ED20 (Rattus norvegicus [8]): 3.5 mg/kg
CN(C)CCOc1ccc(-n2cc(C(=O)O)cn2)cc1C#N			700	
CCOC(=O)c1cnn(-c2ccc(OCC(C)C)c(C#N)c2)c1	< 50			
COc1ccc(-n2cc(C(=O)O)cn2)cc1	< 50			
CC(C)COc1ccc(-n2cc(C(=O)O)cn2)cc1[N+](=O)[O-]			33	
